Like-named read-outs stand apart in the source and are kept apart here. Where no end group is shown, it is not given here.
Columns and labels:
[1] = Cell viability assay (MTS); assay type: cell-based, human; details: human; 24 h; read-out: 50% lethal concentration (LC50)
Method: Human keratinocyte HaCaT cells were grown in DMEM/high glucose (Hyclone, UT) containing 10% fetal bovine serum (Mediatech, Corning, Manassas, VA). […] The mixture was incubated at 37° C. in 5% CO2 for 24 hours.
(§1) HepG2 cells were cultured in ATCC-formulated Eagle's Minimum Essential Medium with 10% FBS. A549 cells were grown in ATCC-formulated F-12K Medium containing 10% FBS.

[2] = test system: P. aeruginosa E416-17; assay type: cell-based, Pseudomonas aeruginosa
Method: Peptide activity against bacteria were tested using the CLSI standard procedure with minor modifications (Clinical and Laboratory Standards Institute (2018) Performance standards for antimicrobial susceptibility testing, 9th ed.; Mishra, et al. (2019) Proc. Natl. Acad. Sci., 116(27):13517-13522). In brief, a peptide concentration gradient with twofold dilution was made in the 96-well polystyrene microplate at 10 μL per well. Bacteria were grown to the exponential phase (i.e., optical density at 600 nm≈0.5), diluted to ˜10^5 CFU/mL in MHB, and partitioned into the 96-well microplate at 90 μL per well. The microplates were incubated at 37° C. overnight and read on a ChroMate® 4300 Microplate Reader at 600 nm (GMI, Ramsey, MN). The peptide concentration in the wells without bacterial growth is the minimal inhibitory concentration (MIC). As the convention, MIC values were represented as ranges.

[3] = test system: human red blood cells; test: Hemolytic assay; assay type: cell-based; details: red cells of human
Method: The hemolytic effects of peptides were evaluated using a method with minor modifications (Lakshmaiah Narayana, et al. (2021) ACS Infect. Dis., 7:1795-1808). Human red blood cells (hRBCs, UNMC Blood Bank) were washed (3×) with blood bank saline (isotonic solution 0.90% w/v, Fisher). Cells were diluted to 2% using the saline solution, and aliquots of 90 μL were added to a 96-well polystyrene microplate containing 10 μL of serially diluted peptide solutions. After incubation at 37° C. for 1 hour, plates were centrifuged at 500 g for 5 minutes. Aliquots of the supernatant were transferred to a 96-well microplate. The amount of hemoglobin released was measured at 545 nm by using a ChroMate™ microplate reader. […] HC50 is defined as the concentration of the peptide that caused 50% lysis.
The hemolytic effects of peptides were evaluated (Narayana, et al. (2020) Proc. Natl. Acad. Sci., 117(32):19446-9454). In brief, human red blood cells (UNMC Blood Bank) were washed (3×) and diluted to 2% using the saline solution. Aliquots of 90 μL were mixed with 10 μL of serially diluted peptide solutions. After incubation at 37° C. for 1 hour, plates were centrifuged at 500 g for 5 minutes and aliquots of the supernatant were transferred to a new 96-well microplate to measure the amount of hemoglobin released at 545 nm (relative to 1% Triton® X-100) using a ChroMate® Microplate Reader.

[4] = test system: S. aureus USA300 LAC; test: microbe, parasite or virus in culture; assay type: cell-based, Staphylococcus aureus
Outline: (§2)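 Broth microdilution with twofold peptide dilutions, using exponential-phase bacteria at about 10^5 CFU/mL in MHB, incubated overnight at 37 °C and read at OD600. MIC, reported as a range, is the peptide concentration with no growth. Some tests used diluted MHB/TSB/LB, adjusted pH, or added NaCl or human serum.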

[5] = Cytotoxicity assay (MTS); assay type: cell-based; details: human, HepG2 cells, read-out: LC50
Method: as §1

[6] = test system: S. epidermidis 1457; test: microbe, parasite or virus in culture; assay type: cell-based, Staphylococcus epidermidis; details: read-out: Antimicrobial activity (MIC) S. epidermidis 1457
Outline: (§3)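 Peptides twofold serially diluted against exponential-phase resistant clinical isolates at ~10^5 CFU/mL in MHB (also diluted MHB, TSB or LB in one protocol), CLSI-based broth microdilution. Incubated overnight at 37° C., OD 600 nm read; MIC taken as lowest concentration without growth, reported as ranges.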

[7] = test system: P. aeruginosa E411-17; test: microbe, parasite or virus in culture; assay type: cell-based, Pseudomonas aeruginosa; details: for MIC: read-out: Antimicrobial activity (MIC)
Outline: as §2

[8] = test system: K. pneumoniae E406-17; assay type: cell-based, Klebsiella pneumoniae
Outline: as §3

[9] = test system: A. baumannii B28-16; assay type: cell-based, Acinetobacter baumannii; details: B28-16
Outline: as §3

[10] = test system: E. coli E423-17; assay type: cell-based, Escherichia coli; details: E423-17

Substance: RWKRFLRNWV-NH2 [RIK-10+]
- CC50 at 24 h [1]: 100 µM
- MIC P. aeruginosa E416-17 [2]: 4 µM
- Hemolysis (HC10), 10% hemolytic concentration [3]: 220 µM
- MIC S. aureus USA300 ([4]; USA300): 16 to 32 µM
- MIC ([4]; USA300, pH 6.21, read-out: Antimicrobial activity (MIC)): >32 µM
- MIC ([4]; USA300, pH 7.22, read-out: Antimicrobial activity (MIC)): 16 µM
- MIC ([4]; USA300, pH 8.13, read-out: Antimicrobial activity (MIC)): 8 µM
- MIC ([4]; USA300, read-out: Antimicrobial activity (MIC)): > 32 µM
- MIC ([4]; USA300, read-out: Antimicrobial activity (MIC) S. aureus USA300): 16 µM
- CC50 at 24 h [5]: 100 µM
- MIC [6]: >32 µM
- Antimicrobial activity (MIC) P. aeruginosa E411-17 ([7]; E411-17): 4 µM
- MIC ([7]; E411-17, pH 6.21): 8 µM
- Antimicrobial activity (MIC) ([7]; E411-17, pH 7.22): 4 to 8 µM
- MIC ([7]; E411-17, pH 8.13): 4 µM
- MIC ([7]; E411-17): >32 µM
- MIC K. pneumoniae E406-17 [8]: 32 µM
- Antimicrobial activity (MIC) A. baumannii B28-16 [9]: 8 µM
- Antimicrobial activity (MIC) E. coli E423-17 [10]: 4 µM
- MIC E. coli E423-17 [10]: 4 to 8 µM
